Laboratory results as given in patent US20130295578A1, “METHODS FOR SCREENING FOR DRUG RESISTANCE IN CANCER TREATMENT” (TRUSTEES OF DARTMOUTH COLLEGE, priority 2011, published 2013).

Assays:
[1] = tested on: BT474 breast cancer cells; settings: 3D culture, trastuzumab resistance; cited from earlier work
COLO-357 cells [2] = settings: for EGF/TGF-β1-induced growth stimulation: 1 nM EGF + 100 pM TGF-β1, inhibitor pre-incubated or added concomitantly
Procedure: An equal volume of cell suspension and ice-chilled 6% Matrigel™ (BD biosciences, San Jose, Calif.) in complete medium (RPMI 1640 supplemented with 5% FBS and 1× penicillin/streptomycin) were mixed and dispensed at: 5-15×10^3 cells in 1000 μl per well of 12-well plates or 3-10×10^3 cells in 200 μl per well of 48-well plates on top of a solidified 1% noble agar layer (Difco, Sparks, Md.). Ice-chilled 3% Matrigel™ in complete medium was used to replenish medium every 4 days and/or to administer compounds.
After 4 hours of staining with 2.5 mg/ml of 3-(4,5-Dimethylthiazol-2-yl)-2,5-diphenyltetrazolium bromide (MTT; Sigma) in PBS, plates were scanned and images were stored as high resolution (1200 dpi) grayscale TIFF files. Signal intensity and density was quantified using Image-Pro Plus (Media Cybernetics, Bethesda, Md.).

PK-1 and PK-2 cells = assay: modified extracellular matrix-based 3D culture; assay type: cell-based, murine; settings: kinase inhibitor present
Procedure: (§1) Murine pancreatic tissue from euthanized animals was mechanically minced and digested with 2 mg/ml of Collagenase Type 4 (Worthington, Lakewood, N.J.) for 1 hour at 37° C. For ex vivo primary cell culture, 10,000 cells per well of 48-well plate were immediately plated in 3% Matrigel™ as described above, except for this modification: RPMI 1640 medium was supplemented with 20% FBS, 1× penicillin/streptomycin and 25 ng/mL amphotericin B (MP Biomedicals, LLC, Solon, Ohio). For secondary cell cultures from tumor lesions of mouse models, cancer (epithelial) cells were selected by carrying out several rounds of diluted plating in RPMI 1640 medium, with a gradual decrease concentration of FBS from 20% to 5%: PK-1 and RInk-1, as previously reported (Seeley et al. 2009. Cancer Res. 69:422-430), or after subcutaneous passage in nude mice (PK-2 and RInk-2). Experiments were conducted with epithelial cells within less than 20 passages.

PK-2 cells [3] = assay: modified extracellular matrix-based 3D culture, MTT readout; assay type: cell-based, murine; settings: for EGF/TGF-β1-induced growth stimulation: 1 nM EGF + 100 pM TGF-β1, inhibitor pre-incubated or added concomitantly; for chemoresistance to treatment: PK-2 compared with COLO-357, at the tested concentrations
Procedure: as §1

PK; p53Δ/Δ cells = assay: ex vivo primary cell 3D culture of PDAC mouse model tumor cells; assay type: cell-based; settings: p53Δ/Δ tumor-derived cells
Procedure: (§2) To assess tissue response to different chemotherapeutic treatments, tumor tissues were digested with collagenase to obtain single cell suspensions for accurate cell counting and equal cell seeding in replica experimental wells.
as §1

PK; p16/p19Δ/Δ cells = assay: as above; assay type: cell-based; settings: p16/p19Δ/Δ tumor-derived cells
Procedure: as §2, §1

PDAC patients = settings: cited from earlier work
COLO-357 cells [4] = assay: culture on tissue culture-treated plastic plates, morphology and immunostaining; assay type: cell-based, human
Source text: (§3) To further investigate the effects of extracellular matrix components on integration of growth factor signals in both human and murine pancreatic cancer cells, cellular responses were compared on conventional tissue culture-treated plastic plates and in 3% Matrigel™. […] Thus, cells loosened their tightly packed cobble-stone like arrangement, became more motile and acquired an elongated fibroblast-like shape. […] This effect was not observed in T3M4 cells, whereas the distribution of the cytoskeleton protein tubulin (control marker) was uniform across all epithelial structures. Increased vimentin expression was not observed in these cellular structures.
(§4) Cells cultured in 3% Matrigel™ were collected 4 days after treatment on a 40 μm sieve mesh using chilled PBS to loosen Matrigel™ matrix, fixed in 10% formalin for 1 hour and coated with melted 1% noble agar. Agar plugs were fixed for up to 4 hours in formalin and paraffin-embedded in fully-automated Shandon Pathcentre instrument as described previously (Sempere et al. 2010. Clin Cancer Res. 16:4246-4255). For freshly fixed cell assays, cells were seeded at 2-5×10^3 per well on 48-well plates, treated after 24 hours and collected 48 hours after treatments by rinsing with chilled PBS and fixed in 10% formalin for 30 minutes. Four μm sections of cellular structures in paraffin-embedded or freshly fixed cells were immunostained using antibody conditions and sequential tyramide signal amplification reactions as previously described (Sempere et al. 2010. Clin Cancer Res. 16:4246-4255).

COLO-357 cells [5] = assay: anchorage-independent growth in soft agar culture; assay type: cell-based, human; settings: COLO-357, soft agar
[6] = tested on: ASPC-1, BxPC3 and T3M4 cells; assay: modified extracellular matrix-based 3D culture, growth factor stimulation; assay type: cell-based, human
Procedure: (§5) To determine how pancreatic cancer cells would integrate potential interactions between EGF and TGF-β1 signals, cells were treated four days after seeding in 3% Matrigel™ with TGF-β1 at a final concentration of 100 pM and/or EGF at 1 nM. […] The growth of ASPC-1, BxPC3 and T3M4 was not affected by TGFB-β1 treatment.

[7] = tested on: PK-1, PK-2 and RInk-2 cells; assay: as above; assay type: cell-based, murine
Procedure: as §5, §1

PK-2 cells [8] = assay: culture on tissue culture-treated plastic plates, morphology and immunostaining; assay type: cell-based, murine
Source text: as §3, §4

In the case of `CC(C)(C)n1nc(-c2ccc(Cl)cc2)c2c(N)ncnc21` [PP2], the “activation of PI3K/AKT pathway and chemoresistant effects of TGF-β” value [1] is listed as “prevented activation of PI3K/AKT pathway and disrupted chemoresistant effects of TGF-β”.

In the case of `C[S+]([O-])c1ccc(-c2nc(-c3ccncc3)c(-c3ccc(F)cc3)[nH]2)cc1` (centres unmarked) [SB203580], the EGF/TGF-β1-induced growth stimulation (COLO-357 cells [2]; COLO-357, 3D culture) is reported as “mild inhibitory effect” and the “stimulatory growth effects of EGF/TGF-β1” value (PK-1 and PK-2 cells) is reported as “mild effect”.

For `NC(=O)c1ccc(-c2nc(-c3ccc4c(c3)OCO4)c(-c3ccccn3)[nH]2)cc1` [SB431542], the EGF/TGF-β1-induced growth stimulation (PK-2 cells [3]; PK-2, 3D culture) was “significantly decreased”, the “EGF/TGF-β1-induced growth stimulation, late inhibitor addition” value (PK-2 cells [3]; PK-2, inhibitor added 4 days following incubation with EGF/TGF-β1) was “halted further growth stimulation” and the EGF/TGF-β1-induced growth stimulation (COLO-357 cells [2]; COLO-357, 3D culture) was “significantly decreased”. For the same compound, the “EGF/TGF-β1-induced growth stimulation, late inhibitor addition” value (COLO-357 cells [2]; COLO-357, inhibitor added 4 days following incubation with EGF/TGF-β1) was “halted further growth stimulation”.

In the case of `N#CC(=C(/N)Sc1ccccc1N)/C(C#N)=C(\N)Sc1ccccc1N` [U0126], the “protective effects of EGF/TGF-β1 against gemcitabine and cisplatin” value (PK-2 cells [3]; PK-2, 3D culture, concomitant inhibitor treatment) is reported as “markedly effective only in PK-2 cells”, the EGF/TGF-β1-induced growth stimulation (COLO-357 cells [2]; COLO-357, 3D culture) is reported as “mild inhibitory effect” and the “stimulatory growth effects of EGF/TGF-β1” value (PK-1 and PK-2 cells) is reported as “moderate effect”.

For `N.N.[Cl][Pt][Cl]` [cisplatin, cis-diamminedichloroplatinum], the chemoresistance to treatment (PK-2 cells [3]) was “more chemoresistant”, the “number and size of cellular structures in 3D culture” value (“number and size” for short) (PK; p53Δ/Δ cells) was “reduced the number and size of cellular structures” and the “number and size” value (PK; p16/p19Δ/Δ cells) was “reduced the number and size of cellular structures”.

In the case of `C#Cc1cccc(Nc2ncnc3cc(OCCOC)c(OCCOC)cc23)c1` [erlotinib], the EGF/TGF-β1-induced growth stimulation (PK-2 cells [3]; PK-2, 3D culture) is given as “significantly decreased”, the EGF/TGF-β1-induced growth stimulation (COLO-357 cells [2]; COLO-357, 3D culture) is given as “significantly decreased” and the “additional increase in survival” value (PDAC patients; addition to gemcitabine as first-line PDAC treatment) is given as 12 days.

For `Nc1ccn([C@@H]2O[C@H](CO)[C@@H](O)C2(F)F)c(=O)n1` [gemcitabine], the chemoresistance to treatment (PK-2 cells [3]) was “more chemoresistant”, the cytotoxic effect (COLO-357 cells [2]; human, 4 days, 10 nM) was “killed most COLO-357 cells” and the “number and size” value (PK; p53Δ/Δ cells) was “reduced the number and size of cellular structures”. The “number and size” value (PK; p16/p19Δ/Δ cells) was “reduced the number and size of cellular structures” and the prolongation of life (PDAC patients; PDAC) was “about 8 weeks”.

In the case of “TGF-β1: transforming growth factor-β isoform 1, used at 100 pM”, the “E-cadherin and vimentin immunostaining” value (COLO-357 cells [4]; COLO-357, on plastic, after TGF-β1 treatment) is reported as “loss of membranous E-cadherin (epithelial marker) and upregulation of intermediate filament vimentin (mesenchymal marker)”, the “TGF-β1 concentration giving limited morphological changes” value (COLO-357 cells [4]; COLO-357, plastic culture) is reported as 20 pM and the “TGF-β1 concentration giving overt morphological changes” value (COLO-357 cells [4]; COLO-357, plastic culture) is reported as 200 pM. For the same compound, the E-cadherin immunostaining (PK-2 cells [3]; PK-2, 3D culture) was “reduced membranous localization of E-cadherin”, the “lowest concentration at which morphological changes were observed” value (PK-2 cells [3]; PK-2, 3D culture) was 1 pM and the “size and number of colonies” value (COLO-357 cells [5]) was “decreased the size and number of colonies”. For the same compound, the “growth promoting effects of EGF” value (COLO-357 cells [5]; TGF-β1 added to EGF) was “antagonized”, the growth ([6]; 100 pM TGF-β1) was “not affected” and the “proliferative actions of EGF” value ([6]; TGF-β1 added to EGF) was “did not affect”. For the same compound, the E-cadherin immunostaining (COLO-357 cells [2]; COLO-357, 3D culture) was “reduced membranous localization of E-cadherin”, the “lowest concentration at which morphological changes were observed” value (COLO-357 cells [2]; COLO-357, 3D culture) was 1 pM and the morphology (COLO-357 cells [2]; COLO-357, 3D culture, 100 pM TGF-β1) was “profound morphological changes”. The “growth stimulatory effects of EGF” value (COLO-357 cells [2]; COLO-357, 3D culture, TGF-β1 added to EGF) was “greatly enhanced”, the growth (COLO-357 cells [2]; COLO-357, 3D culture, growth factor treatment) was “mild growth stimulatory effects” and the “size of cellular structures under cisplatin or gemcitabine challenge” value (COLO-357 cells [2]; COLO-357, growth factor-treated, after 4 and 8 days of incubation) was > 5 cells. For the same compound, the morphology ([7]; 100 pM TGF-β1) was “profound morphological changes”, the growth ([7]; growth factor treatment four days after seeding) was “dramatically enhanced the growth” and the “E-cadherin and vimentin immunostaining” value (PK-2 cells [8]; PK-2, on plastic, after TGF-β1 treatment) was “loss of membranous E-cadherin (epithelial marker) and upregulation of intermediate filament vimentin (mesenchymal marker)”. The “TGF-β1 concentration giving limited morphological changes” value (PK-2 cells [8]; PK-2, plastic culture) was 20 pM and the “TGF-β1 concentration giving overt morphological changes” value (PK-2 cells [8]; PK-2, plastic culture) was 200 pM.
